The assay addresses TNFα trimer (Homo sapiens, UniProt P01375). Put plainly: TNFα FP Competitive Binding Assay. As to the method:
TNFα FP Competitive Binding Assay
• 1. Assay Buffer: Prepare 1× Assay Buffer (Water with 47 mM HEPES, 47 mM NaCl, 0.9 mM EDTA, 0.0071% Triton X-100) by adding 25 mL of 1 M HEPES, 5 mL of 5 M NaCl, 1 mL of 0.5 M EDTA, and 375 μL of a 10% Triton X-100 stock to a fresh 500 mL bottle of water. • 2. Assay Mixture: Prepare fresh Assay Mixture containing 20 nM TNFα trimer (60 nM protein) and 1 nM 2′,7′-difluoro-3′,6′-dihydroxy-N-(2-(2-(2-((4-(isoquinolin-8-yl)-3-(4-(isoquinolin-8-yl)phenethoxy)benzyl)oxy)ethoxy)ethoxy)ethyl)-3-oxo-3H-spiro[isobenzofuran-1,9′-xanthene]-5-carboxamide probe in 1× Assay Buffer.
Compound Plate Preparation
Manual 12-point 1:3 Dilution Plates: (384 well polypropylene plates)
Top concentration of compounds, 10 mM in DMSO, dispensed in rows A-O in columns 1 and 13. Compounds are serially diluted 1:3 with DMSO in columns 2-12 or 14-24 using a 16-channel Matrix pipettor. Plates stored at −20° C.
Discovery Preps 12-point 1:3 Dilution Plates: (384 well assay plates)
Top concentration, 5 mM in DMSO, of compounds placed in rows A-O in columns 1 and 13. Compounds are serially diluted 1:3 with DMSO in columns 2-12 or 14-24. Compound solutions are dispensed into replicate assay plates at 410 nL per well. Plates stored at 4° C.
TNFα FP Competitive Binding Assay Protocol
• 1. Compound plates are warmed to rt. • 2. Fresh Assay Mixture is prepared. • 3. Assay Mixture (20 μL) is dispensed each well of 384 assay plates using a Thermo Multidrop Combi or 16-channel Matrix pipettor. If Manual 12-point 1:3 Dilution Plates are to be tested, Assay Mix is dispensed into empty plates. Discovery Preps 12-point 1:3 Dilution Plates already contain 410 nL compound solution in DMSO. • 4. For Manual 12-point 1:3 Dilution Plates, 0.7 μL is manually transferred using a 16-channel Matrix pipettor to replicate assay plates containing 20 μL Assay Mixture for a final top compound concentration of 338 μM (3.4% DMSO). • 5. For Discovery Preps 12-point 1:3 Dilution Plates, 20 μL Assay Mixture added the 410 nL compound solution already in the plates yields a final top compound concentration of 100 μM (2.0% DMSO). • 6. Background subtraction controls are wells P1-P8 containing only Assay Buffer. The low % inhibition controls are wells P9-P16 containing only Assay Mix. The high % inhibition are wells P17-P24 containing only 1 nM 2′,7′-difluoro-3′,6′-dihydroxy-N-(2-(2-(2-((4-(isoquinolin-8-yl)-3-(4-(isoquinolin-8-yl)phenethoxy)benzyl)oxy)ethoxy)ethoxy)ethyl)-3-oxo-3H-spiro[isobenzofuran-1,9′-xanthene]-5-carboxamide probe in 1× Assay Buffer. • 7. Plates are incubated at […] for 18-24 h in 37° C. incubator (CO2 is off). • 8. Prior to reading the assay, the plates are placed in a dark cabinet to equilibrate at rt for one hour. • 9. Background-subtracted fluorescence polarization (mP) is measured using a PerkinElmer Envision plate reader. • 10. Raw data is entered into Assay Explorer and dose-response curves are generated using a variable slope curve.

The mark [1] stands for this setting: TNFα FP competitive binding assay, class symbols A/B/C, read-out: TNF IC50.
Where [2] appears, read: fluorescence polarization competition, 20 nM TNFα trimer, 1 nM OregonGreen488 probe, read-out: TNF IC50 (TNFα FP binding assay IC50).

Molecules are shown by their SMILES. Like-named read-outs stand apart in the source and are kept apart here. Some results are limits rather than exact numbers.

TNFα trimer, sequence (P01375 77-233 limits assumed): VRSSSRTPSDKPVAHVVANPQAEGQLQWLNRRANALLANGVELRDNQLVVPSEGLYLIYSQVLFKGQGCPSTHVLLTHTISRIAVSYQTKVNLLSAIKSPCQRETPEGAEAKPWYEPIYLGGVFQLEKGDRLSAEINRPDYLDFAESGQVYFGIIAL

`O[C@H]1CC[C@H](Oc2cc(-c3ccc4nc5n(c4n3)C3(COC5)COc4ccccc43)ccn2)CC1` (stereo partly drawn) [AX.1]: under setting [1], the IC50 (commonly the concentration at which inhibition is half-maximal) was under 1000 nM.

In the case of `O=C1NCC2CN(c3ncc(-c4ccc5nc6n(c5n4)C(C4CCCCC4)CC6)cn3)CCN12` (stereo not drawn) [AH.6], under setting [1], the IC50 was under 1000 nM.

As to `O=c1cc(-c2ccc3nc4n(c3n2)[C@@H](c2ccccc2)CC4)ccn1C1CCOCC1` [AW.5], under setting [1], the IC50 is 10000 to 100000 nM.

On to `COc1ccccc1C1(O)CCCc2nc3ccc(-c4cnc(N5CCOCC5)nc4)cn3c21` (stereo not drawn) [Example 5, 9-(2-Methoxyphenyl)-2-(2-morpholinopyrimidin-5-yl)-6,7,8,9-tetrahydrobenzo[4,5]imidazo[1,2-a]pyridin-9-ol], for which the IC50 under setting [2] is 1000 to 10000 nM.

Regarding `Clc1cccc(C2CCCc3nc4ccc(-c5cnc(N6CCOCC6)nc5)cn4c32)c1` (stereo not drawn) [K.1], under setting [2], the IC50 was under 1000 nM.

As to `N#Cc1ncc(-c2ccc3nc4n(c3c2)C(c2ccccc2)COC4)cn1` (stereo not drawn) [T.15], under setting [1], the IC50 lay in the range of 1000 to 10000 nM.

On to `CN1CC[C@H](Oc2cc(-c3ccc4nc5n(c4n3)[C@@H](c3ccccc3)CC5)ccn2)C1` [AQ.8], for which, under setting [1], the IC50 was 1000 to 10000 nM.

On to `CS(=O)(=O)C1(CO)CCN(c2ncc(-c3ccc4nc5n(c4c3)[C@@H](c3ccccc3)COC5)cn2)CC1` [G.33], for which the IC50 under setting [2] fell in the range of 1000 to 10000 nM.

With `Cn1cnc2cc(-c3ccc4nc5n(c4c3)C(c3ccccc3)COC5)cnc21` (stereo not drawn) [T.32], under setting [1], the IC50 is 10000 to 100000 nM.

With `c1ccc([C@H]2CCc3nc4ccc(-c5ccnc(OC6CCOCC6)c5)nc4n32)cc1` [Example 47, (R)-8-Phenyl-2-(2-((tetrahydro-2H-pyran-4-yl)oxy)pyridin-4-yl)-7,8-dihydro-6H-pyrrolo[2′,1′:2,3]imidazo[4,5-b]pyridine], the IC50 under setting [2] is under 1000 nM.

As for `O=C1NCC2CN(c3ncc(-c4ccc5nc6n(c5n4)[C@@H](C4CCCCC4)CC6)cn3)CCN12` (stereo partly drawn) [AH.5], under setting [1], the IC50 is under 1000 nM.

`CC(C)(O)c1ncc(-c2ccc3nc4n(c3n2)C2(CCOc3ccccc32)COC4)cn1` (stereo not drawn) [BA.7]: the IC50 under setting [1] is 1000 to 10000 nM.

In the case of `CC(C)(O)c1ncc(-c2ccc3nc4n(c3c2)[C@@H](c2ccccc2OC(F)F)COC4)cn1` [Example 13, (S)-2-(5-(4-(2-(Difluoromethoxy)phenyl)-3,4-dihydro-1H-benzo[4,5]imidazo[2,1-c][1,4]oxazin-7-yl)pyrimidin-2-yl)propan-2-ol], under setting [2], the IC50 is under 1000 nM.

Turning to `c1ccc(C2COCc3nc4ccc(-c5cnc(N6CCOCC6)nc5)cc4n32)cc1` (stereo not drawn) [Example 19, 7-(2-Morpholinopyrimidin-5-yl)-4-phenyl-3,4-dihydro-H-benzo[4,5]imidazo[2,1-c][1,4]oxazine], the IC50 under setting [2] was under 1000 nM.

For `Cc1nccn1-c1cnc(-c2ccc3nc4n(c3c2)C(c2ccccc2)COC4)cn1` (stereo not drawn) [T.8], the IC50 under setting [1] lay in the range of 1000 to 10000 nM.

As for `COc1ncc(-c2ccc3nc4n(c3n2)C2(CCOc3ccccc32)COC4)cn1` (stereo not drawn) [BA.1], under setting [1], the IC50 lay in the range of 1000 to 10000 nM.

With `CC(C)(N)c1ncc(-c2ccc3nc4n(c3n2)[C@@H](c2ccccc2)CC4)cn1` [BQ.1], the IC50 (Table BQ, read-out: TNF IC50) fell in the range of 1000 to 10000 nM.

Take `O=C1NCC2CN(c3ncc(-c4ccc5nc6n(c5n4)C(c4cccc(F)c4)CC6)cn3)CCN12` (stereo not drawn) [M.5]: the IC50 under setting [2] was under 1000 nM.

For `C[C@H]1CN(c2ncc(-c3ccc4nc5n(c4n3)C3(COC5)COc4ccccc43)cn2)CCN1C(=O)CO` (stereo partly drawn) [Example 67, 1-((2S)-4-(5-(2H,6′H,8′H-Spiro[benzofuran-3,9′-pyrido[3′,2′:4,5]imidazo[2,1-c][1,4]oxazin]-2′-yl)pyrimidin-2-yl)-2-methylpiperazin-1-yl)-2-hydroxyethan-1-one], under setting [2], the IC50 was under 1000 nM.

Take `CN(C)C(=O)c1cccc(-c2ccc3nc4n(c3c2)C(c2ccccc2)CC4)c1` (stereo not drawn) [A.29]: the IC50 under setting [2] lay within 10000 to 100000 nM.

For `COc1ccccc1C1CCc2nc3ccc(-c4cnc(N5CCN6C(=O)NCC6C5)nc4)nn3c21` (stereo not drawn) [Example 34, 7-(5-(8-(2-Methoxyphenyl)-7,8-dihydro-6H-cyclopenta[4,5]imidazo[1,2-b]pyridazin-2-yl)pyrimidin-2-yl)hexahydroimidazo[1,5-a]pyrazine-3(2H)-one], the IC50 under setting [2] was under 1000 nM.

For the compound `O=C1NC[C@@H]2CN(c3ncc(-c4ccc5nc6n(c5c4)[C@@H](c4ccccc4)COC6)cn3)CCN12` [Example 26, (R)-7-(5-((S)-4-Phenyl-3,4-dihydro-1H-benzo[4,5]imidazo[2,1-c][1,4]oxazin-7-yl)pyrimidin-2-yl)hexahydroimidazo[1,5-a]pyrazin-3(2H)-one], under setting [2], the IC50 was under 1000 nM.

Take `C[C@@H]1CN(c2ncc(-c3ccc4nc5n(c4n3)C3(COC5)COc4ccccc43)cn2)CCN1C(=O)CO` (stereo partly drawn) [BH.3]: the IC50 under setting [1] is under 1000 nM.

For the compound `C[C@H]1CN(c2ncc(-c3ccc4nc5n(c4n3)C3(COC5)COc4ccccc43)cn2)CCN1C(=O)COC(C)(C)C` (stereo partly drawn) [BG.3, 2-(tert-Butoxy)-1-((2S)-4-(5-(6′,8′-dihydro-2H-spiro[benzofuran-3,9′-pyrido[3′,2′:4,5]imidazo[2,1-c][1,4]oxazin]-2′-yl)pyrimidin-2-yl)-2-methylpiperazin-1-yl)ethanone], the IC50 under setting [1] is 1000 to 10000 nM.

In the case of `Cc1cc(-c2ccc3nc4n(c3c2)C(c2ccccc2)COC4)cnc1N1CCOCC1` (stereo not drawn) [T.12], the concentration for half-maximal inhibition (IC50) under setting [1] was in the range of 1000 to 10000 nM.

`CC(=O)N1CCN(c2ccc(-c3ccc4nc5n(c4c3)C(c3ccccc3)COC5)cn2)CC1` (stereo not drawn) [T.13]: the 50% inhibitory concentration (IC50) under setting [1] fell in the range of 1000 to 10000 nM.

Turning to `O[C@H]1CC[C@H](COc2cc(-c3ccc4nc5n(c4n3)[C@@H](c3ccccc3)CC5)ccn2)CC1` [BK.2], the IC50 (Table BK, read-out: TNF IC50) is 1000 to 10000 nM.

For `N#C[C@@H]1CC[C@@H](Oc2cc(-c3ccc4nc5n(c4n3)[C@@H](c3ccccc3)CC5)ccn2)C1` [AS.7], under setting [1], the IC50 was 1000 to 10000 nM.

Consider `CC(C)(O)Cn1ccc(-c2ccc3nc4n(c3n2)[C@@H](c2ccccc2)CC4)cc1=O` [AK.3], for which the IC50 under setting [1] fell in the range of 10000 to 100000 nM.

`CC(C)(O)c1ncc(-c2ccc3nc4n(c3n2)C(c2ccccc2)C2CC4C2)cn1` (stereo not drawn) [Example 63, 2-(5-(9-Phenyl-6,7,8,9-tetrahydro-6,8-methanoimidazo[1,2-a:5,4-b′]dipyridin-2-yl)pyrimidin-2-yl)propan-2-ol]: under setting [2], the IC50 was in the range of 1000 to 10000 nM.

Consider `O=C1NCC2CN(c3ncc(-c4ccc5nc6n(c5c4)[C@@H](c4ccccc4Cl)COC6)cn3)CCN12` (stereo partly drawn) [AH.3], for which, under setting [1], the IC50 was under 1000 nM.

With `c1ccc([C@H]2COCc3nc4ccc(-c5cnc(N6CCCOCC6)nc5)cc4n32)cc1` [G.32], the IC50 under setting [2] was under 1000 nM.

Regarding `c1ccc([C@H]2COCc3nc4ccc(-c5cnc(N6[C@H]7CCC[C@@H]6CNCC7)nc5)cc4n32)cc1` [Example 37], under setting [2], the IC50 was under 1000 nM.

For the compound `COc1ccccc1C1CCOc2nc3ccc(-c4cnc(N5CCOCC5)nc4)cn3c21` (stereo not drawn) [D.5], the IC50 under setting [2] is under 1000 nM.

As to `O=C1NCCC12CCN(c1ncc(-c3ccc4nc5n(c4c3)[C@@H](c3ccccc3)COC5)cn1)C2` (stereo partly drawn) [G.1], the IC50 under setting [2] lay in the range of 1000 to 10000 nM.

For `OC1CCN(c2ncc(-c3ccc4nc5n(c4n3)C3(COC5)COc4ccccc43)cn2)CC1` (stereo not drawn) [Example 50, 1-(5-(6′,8′-Dihydro-2H-spiro[benzofuran-3,9′-pyrido[3′,2′:4,5]imidazo[2,1-c][1,4]oxazin]-2′-yl)pyrimidin-2-yl)piperidin-4-ol], the IC50 under setting [2] was under 1000 nM.

As to `CC(O)(c1ncc(-c2ccc3nc4n(c3n2)[C@@H](c2ccccc2)CC4)cn1)C1CCOCC1` (stereo partly drawn) [AL.4], the IC50 under setting [1] was in the range of 1000 to 10000 nM.

Take `O=C(NC1CC1)c1ccc(-c2ccc3nc4n(c3c2)C(c2ccccc2)CC4)cc1` (stereo not drawn) [A.19]: the IC50 under setting [2] was in the range of 1000 to 10000 nM.

On to `OC1CC(Nc2ncc(-c3ccc4nc5n(c4n3)C3(COC5)COc4ccccc43)cn2)C1` (stereo not drawn) [AU.2], for which, under setting [1], the IC50 was 1000 to 10000 nM.

These data come from patent US20180179198A1, “TRICYCLIC MODULATORS OF TNF SIGNALING” (AbbVie Inc., priority 2015, published 2018).
